Entries after “also recorded” stand apart in the source; their conditions may differ.
Key:
[1] = tested on: mixture of Pseudomonas species containing predominantly Pseudomonas putida and Pseudomonas stutzeri; assay: Biocidal activity in slurry (Total Viable Count after inoculation); type: cell-based; details: GNCCS1 slurry; Tables 1, 2 and 4
Protocol: (§1) All quoted bacterial counts (Total Viable Count (TVC) values are in cfu/ml) in the Tables herebelow are determined after 5 days following plate-out and in accordance with counting method described in “Bestimmung von aeroben mesophilen Keimen”, Schweizerisches Lebensmittelbuch, chapter 56, section 7.01, edition of 1985, revised version of 1988.
Biocide mixture 1 (BM1) is an aqueous solution containing 24% by weight of GDA and 1.5% by weight of a combination of CIT and MIT (in a weight ratio CIT:MIT of 3:1), relative to the total solution weight. BM1 and AMP were introduced into 50 g samples of each of the slurries indicated in Table 1 in the listed amounts (quoted in ppm based on the weight of the aqueous phase in the slurry). References were prepared according to the same protocol but in absence of AMP and in absence of AMP and BM1.
The slurry samples were then inoculated with 1 ml of a mixture of Pseudomonas species containing predominantly Pseudomonas putida and Pseudomonas stutzeri. Each of the samples was incubated at 30° C. for 72 hours. Thereafter, a 1:10 dilution in phosphate buffered saline (PBS) was plated on plate count agar (PCA). These plates were incubated at 30° C. and analysed after 5 days. […]

Pseudomonas aeruginosa = details: in combination with 500 ppm of triazine biocide; TSB-based plates; cited from earlier work
[2] = tested on: mixture of Pseudomonas species containing predominantly Pseudomonas putida and Pseudomonas stutzeri that are resistant to BM2; assay: Biocidal activity in slurry, BM2-resistant bacteria; type: cell-based; details: GNCCS1 slurry
Protocol: as §1
BM2 and AMP were introduced into 50 g samples of each of the slurries indicated in Table 5 in the listed amounts (quoted in ppm based on the weight of the aqueous phase in the slurry). A reference was prepared according to the same protocol but in absence of AMP. References were prepared according to the same protocol but in absence of AMP and in absence of AMP and BM2.
(§2) The slurry samples were then inoculated with 1 ml of a mixture of Pseudomonas species containing predominantly Pseudomonas putida and Pseudomonas stutzeri that are resistant to BM2. Each of the samples was incubated at 30° C. for 72 hours. Thereafter, a 1:10 dilution in phosphate buffered saline (PBS) was plated on plate count agar (PCA). These plates were incubated at 30° C. and analysed after 5 days.
Biocide mixture 2 (BM2) is an aqueous solution containing 85% by weight of EGHF and 1.5% by weight of a combination of CIT and MIT (in a weight ratio CIT:MIT of 3:1), relative to the total solution weight. […]

[3] = tested on: mixture of Pseudomonas species containing predominantly Pseudomonas putida and Pseudomonas stutzeri that are resistant to OPP; assay: Biocidal activity in slurry, OPP-resistant bacteria; type: cell-based; details: GNCCS1 slurry
Protocol: as §1
OPP, in the form of an aqueous solution having a concentration of 45%, and MEA were introduced into 50 g samples of each of the slurries indicated in Table 11 in the listed amounts (quoted in ppm active content based on the weight of the aqueous phase in the slurry). A reference was prepared according to the same protocol but in absence of MEA. References were prepared according to the same protocol but in absence of MEA and in absence of MEA and OPP.
as §2, with “OPP.” for “BM2.”
Test 59 below represents the same slurry as Test 58, but following a second inoculation of 1 ml of a mixture of Pseudomonas species. […]

[4] = tested on: mixture of Pseudomonas species containing predominantly Pseudomonas putida and Pseudomonas stutzeri that are resistant to BM1; assay: Biocidal activity in slurry, BM1-resistant bacteria; type: cell-based; details: GNCCS1 slurry
Protocol: as §1
BM1 and AMP were introduced into 50 g samples of each of the slurries indicated in Table 3 in the listed amounts (quoted in ppm based on the weight of the aqueous phase in the slurry). References were prepared according to the same protocol but in absence of AMP and in absence of AMP and BM1.
as §2, with “BM1.” for “BM2.”
Biocide mixture 1 (BM1) is an aqueous solution containing 24% by weight of GDA and 1.5% by weight of a combination of CIT and MIT (in a weight ratio CIT:MIT of 3:1), relative to the total solution weight. […]

| Compound | biocide enhancement (in words) [1] | amount of AMP needed to significantly influence the growth rate of the bacteria (Pseudomonas aeruginosa) | biocide enhancement (in words) [2] | biocide enhancement (in words) [3] | biocide enhancement (in words) [4] |
| --- | --- | --- | --- | --- | --- |
| CC(C)(N)CO [AMP, 2-amino-2-methyl-1-propanol] | enhances the biocide function of BM1; also recorded: enhances the biocide function of BM2 | more than 4 000 ppm | enhances the biocide function of BM2 | – | – |
| NCCO [MEA, 2-aminoethanol] | – | – | enhances the biocide function of BM2 | enhances the biocide function of OPP | enhances the biocide function of BM1 |
